Experiment: Safety and tolerability: adverse events, dose-limiting toxicities, MTD, RP2D (Phase 1A/1B)
Type: in vivo
Experimental: This was an open-label, Phase 1, dose-escalation/dose-expansion study, conducted across six study centres in Australia. The dose-escalation phase evaluated twice-daily (BID) and once-daily (QD) dosing, and the dose-expansion phase evaluated the BID RP2D from the dose-escalation phase and food effects (Fig. 1). The food-effects cohort comprised two sequences: fast followed by fed (sequence 1) and fed followed by fast (sequence 2). […] The decision to proceed to the next dose cohort was determined by the Safety Monitoring Committee and followed a modified 3 + 3 escalation scheme. […] When ≥2 DLTs occurred in the first 23 days of a dose level, the next lower dose level was declared the MTD. Safety was monitored and DLTs were assessed in all dose cohorts. […] The food-effects cohort investigated the effects of food on the PK of pamiparib in patients with advanced solid tumours.
The QD dosing regimen was added as an amendment to the protocol with the purpose of exploring the feasibility of a more convenient regimen.
Safety and tolerability were assessed throughout the study by monitoring adverse events (AEs), serious AEs, clinical laboratory measurements and physical examinations. Adverse events were categorised according to their severity (National Cancer Institute Common Terminology Criteria for Adverse Events v4.03) and relationship to the study treatment.

Question: Which results are given for C[C@]12CCCN1CC1=NNC(=O)c3cc(F)cc4[nH]c2c1c34 [pamiparib]?
Answer: Treatment-emergent AE: Grade 3 or higher (40 mg BID (n = 6)): 3 (50.0) n (%); Treatment-emergent AE: Leading to death (40 mg BID (n = 6)): 0 (0.0) n (%); Treatment-emergent AE: Leading to dose interruption (40 mg BID (n = 6)): 4 (66.7) n (%); Treatment-emergent AE: Leading to dose modification (40 mg BID (n = 6)): 4 (66.7) n (%); Treatment-emergent AE: Leading to dose reduction (40 mg BID (n = 6)): 0 (0.0) n (%); Treatment-emergent AE: Leading to treatment discontinuation (40 mg BID (n = 6)): 1 (16.7) n (%); Treatment-emergent AE: Serious (40 mg BID (n = 6)): 2 (33.3) n (%); Treatment-related AE (40 mg BID (n = 6)): 6 (100.0) n (%); Treatment-related AE: Grade 3 or higher (40 mg BID (n = 6)): 2 (33.3) n (%); Treatment-related AE: Leading to death (40 mg BID (n = 6)): 0 (0.0) n (%); Treatment-related AE: Leading to dose interruption (40 mg BID (n = 6)): 3 (50.0) n (%); Treatment-related AE: Leading to dose modification (40 mg BID (n = 6)): 3 (50.0) n (%); Treatment-related AE: Leading to dose reduction (40 mg BID (n = 6)): 0 (0.0) n (%); Treatment-related AE: Leading to treatment discontinuation (40 mg BID (n = 6)): 0 (0.0) n (%); Treatment-related AE: Serious (40 mg BID (n = 6)): 0 (0.0) n (%); Upper respiratory tract infection, AE of any grade (40 mg BID (n = 6)): 1 (16.7) n (%); Urinary tract infection, AE of any grade (40 mg BID (n = 6)): 0 (0.0) n (%); Vomiting, AE of any grade (40 mg BID (n = 6)): 5 (83.3) n (%); Dose-limiting toxicities observed (description) (40 mg BID, n = 1): Grade 2 nausea; Incidence of nausea (60 mg BID): 54.5%; Abdominal pain, AE of any grade (60 mg BID (n = 11)): 3 (27.3) n (%); Anaemia, AE of any grade (60 mg BID (n = 11)): 4 (36.4) n (%); Ascites, AE of any grade (60 mg BID (n = 11)): 0 (0.0) n (%); Back pain, AE of any grade (60 mg BID (n = 11)): 1 (9.1) n (%); Constipation, AE of any grade (60 mg BID (n = 11)): 1 (9.1) n (%); Cough, AE of any grade (60 mg BID (n = 11)): 1 (9.1) n (%); Decreased appetite, AE of any grade (60 mg BID (n = 11)): 1 (9.1) n (%); Diarrhoea, AE of any grade (60 mg BID (n = 11)): 4 (36.4) n (%); Dose-limiting toxicity (60 mg BID (n = 11)): 0 (0.0) n (%); Dyspnoea, AE of any grade (60 mg BID (n = 11)): 1 (9.1) n (%); Fatigue, AE of any grade (60 mg BID (n = 11)): 2 (18.2) n (%); Headache, AE of any grade (60 mg BID (n = 11)): 0 (0.0) n (%); Hypoalbuminemia, AE of any grade (60 mg BID (n = 11)): 2 (18.2) n (%); Hypomagnesemia, AE of any grade (60 mg BID (n = 11)): 0 (0.0) n (%); Hypophosphatemia, AE of any grade (60 mg BID (n = 11)): 1 (9.1) n (%); Increased AST, AE of any grade (60 mg BID (n = 11)): 1 (9.1) n (%); Muscle spasms, AE of any grade (60 mg BID (n = 11)): 1 (9.1) n (%); Nausea, AE of any grade (60 mg BID (n = 11)): 6 (54.5) n (%); Neutropenia, AE of any grade (60 mg BID (n = 11)): 0 (0.0) n (%); Non-cardiac chest pain, AE of any grade (60 mg BID (n = 11)): 1 (9.1) n (%); Pain in extremity, AE of any grade (60 mg BID (n = 11)): 1 (9.1) n (%); Peripheral sensory neuropathy, AE of any grade (60 mg BID (n = 11)): 1 (9.1) n (%); Pleural effusion, AE of any grade (60 mg BID (n = 11)): 2 (18.2) n (%); Pyrexia, AE of any grade (60 mg BID (n = 11)): 0 (0.0) n (%); Treatment-emergent AE (60 mg BID (n = 11)): 11 (100.0) n (%); Treatment-emergent AE: Grade 3 or higher (60 mg BID (n = 11)): 9 (81.8) n (%); Treatment-emergent AE: Leading to death (60 mg BID (n = 11)): 3 (27.3) n (%); Treatment-emergent AE: Leading to dose interruption (60 mg BID (n = 11)): 8 (72.7) n (%); Treatment-emergent AE: Leading to dose modification (60 mg BID (n = 11)): 8 (72.7) n (%); Treatment-emergent AE: Leading to dose reduction (60 mg BID (n = 11)): 0 (0.0) n (%); Treatment-emergent AE: Leading to treatment discontinuation (60 mg BID (n = 11)): 0 (0.0) n (%); Treatment-emergent AE: Serious (60 mg BID (n = 11)): 9 (81.8) n (%); Treatment-related AE (60 mg BID (n = 11)): 7 (63.6) n (%); Treatment-related AE: Grade 3 or higher (60 mg BID (n = 11)): 1 (9.1) n (%); Treatment-related AE: Leading to death (60 mg BID (n = 11)): 0 (0.0) n (%); Treatment-related AE: Leading to dose interruption (60 mg BID (n = 11)): 2 (18.2) n (%); Treatment-related AE: Leading to dose modification (60 mg BID (n = 11)): 2 (18.2) n (%); Treatment-related AE: Leading to dose reduction (60 mg BID (n = 11)): 0 (0.0) n (%); Treatment-related AE: Leading to treatment discontinuation (60 mg BID (n = 11)): 0 (0.0) n (%); Treatment-related AE: Serious (60 mg BID (n = 11)): 1 (9.1) n (%); Upper respiratory tract infection, AE of any grade (60 mg BID (n = 11)): 1 (9.1) n (%); Urinary tract infection, AE of any grade (60 mg BID (n = 11)): 3 (27.3) n (%); Vomiting, AE of any grade (60 mg BID (n = 11)): 4 (36.4) n (%); Incidence of nausea (80 mg BID): 80.0%; Abdominal pain, AE of any grade (80 mg BID (n = 10)): 2 (20.0) n (%); Anaemia, AE of any grade (80 mg BID (n = 10)): 4 (40.0) n (%)

Source: publication PMC8854719, “Phase 1A/1B dose-escalation and -expansion study to evaluate the safety, pharmacokinetics, food effects and antitumor activity of pamiparib in advanced solid tumours” (British Journal of Cancer, 2021)
